# Source: ChEMBL document CHEMBL1138988, “Assessment of in vitro and in vivo activities in the National Cancer Institute's anticancer screen with respect to chemical structure, target specificity, and mechanism of action” (2006)
# Activity calls are given as the source filed them. The rule behind the calls is not given here.
# Tests used:
# [1] = tested on: Panel NCI-60 (60 carcinoma cell lines); test: Antiproliferative activity against NCI60 cell line; assay type: functional, Homo sapiens
# [2] = tested on: Mus musculus; test: Activity against NCI60 cell line xenograft in nude mouse by HF assay; assay type: functional
SMILES,pGI50 [1],Activity [2]
COc1cc2c(c(OC)c1OC)-c1ccc(OC)c(=O)cc1[C@@H](NC(C)=O)CC2 [COLCHICINE],5.8,19.6
Nc1ccn([C@@H]2O[C@H](CO)[C@@H](O)[C@@H]2O)c(=O)n1 [CYTARABINE],5,11
O=C(OC12CC3CC(CC(C3)C1)C2)c1ccc(NCc2cc(O)ccc2O)cc1,5.44,10.83
CCC1(O)C(=O)OCc2c1cc1n(c2=O)Cc2cc3ccccc3nc2-1 (stereo unspecified),5.99,13.67
CCCCCCC(O)C(O)CCC(O)C1CCC(CCCCC(O)CC2=CC(C)OC2=O)O1 (stereo unspecified) [ACETOGENINS],5.53,inactive
N/C(S)=N/N=C/c1ccc(O)cn1,5.92,15
CN(Cc1cnc2nc(N)nc(N)c2n1)c1ccc(C(=O)N[C@@H](CCC(=O)O)C(=O)O)cc1 [METHOTREXATE],5.55,16.8
COc1cccc2c1C(=O)c1c(O)c3c(c(O)c1C2=O)CC(O)(C(=O)CO)CC3OC1CC(N)C(O)C(C)O1 (stereo unspecified),6.53,20.67
